Entries after “also recorded” stand apart in the source; their conditions may differ.
Tests used:
human serum proteins = assay: Serum protein (albumin) binding by ultrafiltration, human serum; assay type: in vitro ADME; settings: 37° C.
Description: The devices were pre-treated with PBS containing Tween 20 (5% v/v) as disclosed in Hausner 2007, followed by triplicate rinses with PBS. An aliquot of each formulated radiotracer in PBS (≤25 μL, 20-60 KBq) was thoroughly mixed with 0.5 mL serum at 37° C. in a microfuge tube. The mixture was incubated at 37° C. for 5 min and an aliquot (50 μL) of was transferred to a tube for γ-counting. The remaining sample was transferred to a Centrifree Ultrafiltration device and centrifuged for 40 min. at 1500×g at ambient temperature (20-24° C.). An aliquot (50 μL) of the filtrate was transferred to a tube for γ-counting. For each radiotracer, a blank was run using 0.5 mL PBS/Tween 20 (5% v/v) instead of serum (n=4) to determine non-specific binding. Following γ-counting, the protein-bound radioactivity was calculated by subtracting the counts measured in the filtrate aliquot (i.e., not protein bound) from the counts in the corresponding serum aliquot. The data are expressed as mean±standard deviation of fraction of radioactivity bound to protein after subtraction of non-specific binding determined in the blank.

[1] = tested on: locally advanced, unresectable or metastatic pancreatic adenocarcinoma; assay: Single institution pilot study, 3+3 dose escalation; assay type: in vivo, human; settings: individual patients
Description: Patients first underwent a single microdose of [^68Ga]Ga DOTA-5G PET/CT to assess eligibility for the [^177Lu]Lu DOTA-ABM-5G therapy. Only patients with sufficient lesion uptake (any visualized lesion with SUVmax>2-fold above normal lung or liver) were offered therapy with [^177Lu]Lu DOTA-ABM-5G. The study was designed as a 3+3 dose escalation study with [^177Lu]Lu DOTA-ABM-5G. The treatment regimen consisted of one dose of [^177Lu]Lu DOTA-ABM-5G. The 3+3 design included three patients for the first activity level group (25 mCi) (see Table 4, below). Dose-limiting toxicity (DLT) is defined as any treatment related AE≥grade 3 (G3). In addition, the radiation dose to the kidneys must not exceed 23 Gy and the dose to the bone marrow must not exceed 1.5 Gy. If no DLT occurs within 30 days (after the third patient), 3 patients were then enrolled at the next dose level. Should a patient not be available for complete evaluation of treatment related toxicity within the 30 day DLT window due to non-treatment related issues, the patient was replaced for the purpose of DLT assessment at the same dose level. If DLT attributable to the study treatment is experienced in exactly ⅓ subjects in the first course, 3 more patients (for a total of 6) are treated at that dose level. The dose was escalated if no additional DLT is observed at the expanded dose level (i.e., ⅙ with DLT). Escalation stops as soon as two or more subjects experience DLT attributable to the study drugs. The highest dose (200 mCi limit) with no more than one DLT out of six patients is recommended for Phase II. The radiation dose to the kidneys must not exceed 23 Gy and the dose to the bone marrow must not exceed 1.5 Gy.
Patients deemed eligible based on the [^68Ga]Ga DOTA-5GPET/CT were scheduled to receive one dose of the [^177Lu]Lu DOTA-ABM-5G therapy within 4 weeks (±7 days) of the [^68Ga]Ga DOTA-5G scan. […] For renal protection purpose, a 4-hour co-infusion of an amino acid solution (containing L-lysine [between 18 g and 24 g] and L-arginine [between 18 g and 24 g] was started 30 minutes prior to the infusion of [^177Lu]Lu DOTA-ABM-5G and continued at a constant rate (250 cc/hr) for a total of 4 hours. The patient was monitored for one hour after completion of the amino acid solution infusion. Administration of the amino acid solution before, during and after the [^177Lu]Lu DOTA-ABM-5G therapy was based on experience with Lu-177 DOTATATE to flush the radionuclide through the proximal tubules and decrease the radiation dose to the kidneys. […]
The biodistribution and dosimetry was evaluated using nuclear imaging at 1 day and 7 days post-infusion of [^177Lu]Lu DOTA-ABM-5G. […]

BxPC-3 (αvβ6 (+)) tumors = assay: Blocking study (cold peptide 10 min before radiotracer), biodistribution; assay type: in vivo, mice; settings: 4 h p.i.
Description: (§1) Female nu/nu nude mice (6-8 weeks old) were purchased from Charles River Laboratories (Wilmington, MA, USA) and handled according to the UC Davis Institutional Animal Care and Use Committee. BxPC-3 cells (5×10^6) in 100 μl 1:1 GFR-Matrigel: serum-free RPMI were implanted subcutaneously into the left shoulder flank and allowed to grow for approximately 2 weeks (therapy study) and 3 weeks (0.5-1 cm in diameter, for imaging and biodistribution studies). All cells were evaluated with flow cytometry before injection to confirm integrin expression levels. Food and water were available ad libitum.
(§2) For blocking studies, respective non-chelated cold peptide (30 mg/kg, 10 mg/mL (DOTA-5G) and 48 mg/kg, 16 mg/mL (DOTA-ABM-5G) solution in PBS) was injected 10 min. before the formulated radiotracer. At each time point, the mice (n=3/time point/radiotracer) were anesthetized and sacrificed. The tissues were collected, rinsed with PBS, and the radioactivity of each measured with a gamma counter. Radioactivity concentrations were calibrated, decay-corrected, and expressed as percent of injected dose per gram of tissue (% ID/g).

[2] = as above; assay type: in vivo, mice; settings: female, nu/nu nude, mouse, BxPC-3 tumor, iv, total radioactivity; 4 h p.i.; DOTA-ABM-5G 48 mg/kg 10 min before
Description: as §1, §2

[3] = tested on: integrin αvβ6(+) BxPC-3 cells; assay: Cell binding, internalization and efflux; settings: 37° C.

## CNC(=O)C(CCCCNC(=O)C(CC(=O)O)NC(=O)CCCNC(=O)CCCc1ccc(I)cc1)NC(=O)CN1CCN2CCN3CCN(CC1)CC(=O)[O][177Lu]([O]C(=O)C2)[O]C(=O)C3 (stereo not shown) [[^177Lu]Lu DOTA-ABM-5G]
Human serum proteins
  albumin (serum protein) binding: 58.1±0.4%
[1]; Dose Level 1 (25 mCi)
  Current status: alive, increase in metastatic; also recorded: alive, stable disease; also recorded: Deceased (patient deteriorated
  Renal function over 90 days: no change
[1]; Dose Level 2 (50 mCi)
  Current status: alive, no evidence of liver; also recorded: alive
  Renal function over 90 days: no change
BxPC-3 (αvβ6 (+)) tumors
  change of BxPC-3 tumor uptake by blocking (Δ): −42%
[2]
  tissue uptake at 4 h: 4.12 %ID/g
[3]; 1 h
  bound to BxPC-3 cells (of total radioactivity): 29±1.4%
  internalized into BxPC-3 cells (of total radioactivity): 21.6±0.01%
[3]; at 1 hour post-internalization
  efflux from BxPC-3 cells: 5%

— US12649008B2, “Peptide receptor radionuclide therapy” (The Regents of the University of California, priority 2020, dated 2026)
